Here are results for 18 molecules from patent publication US20230293517A1, “ANTAGONIST COMPOUNDS” (AdoRx Therapeutics Limited, priority 2020, published 2023).

Assay [1] addresses human Adenosine A2a receptor (Homo sapiens (Human), UniProt P29274). The assay can be described thus: Adenosine receptor TR-FRET binding assay (A2a). To be noted: inhibition of binding of 100 nM CA200645, CHO cell membranes. Summed up: (§1)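 TR-FRET displacement of fluorescent XAC (CA200645; 30 nM for A2b, 100 nM for A1/A2a/A3) from terbium-labelled human receptors in CHO membranes, 2 h at room temperature with saponin, 1% DMSO. Non-specific binding with 10 μM XAC; 665/620 nm ratio; Ki from IC50 by Cheng–Prusoff.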
(In general: In TR-FRET formats the signal depends on donor and acceptor labels being close together.)

In assay [2] the target is human Adenosine A2b receptor (Homo sapiens (Human), UniProt P29275). The assay is described as follows: Adenosine receptor TR-FRET binding assay (A2b). As to conditions: TR-FRET, inhibition of binding of 30 nM CA200645, CHO cell membranes. Summed up:
as §1

The subject of the next assay is human PBMCs. The assay is described as follows: CD3/CD28 stimulated IL-2 release NECA reversal assay in human PBMCs. The format is cell-based. To be noted: PBMC, 1 uM NECA, 24 hours, IL-2 in culture supernatant. In outline: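 PBMCs from citrated healthy-donor blood plated at 50,000 cells/well on 1 ug/ml CD3 antibody with 1 ug/ml CD28 antibody, 1 uM NECA and 0.003-10 μM antagonist (final), 24 h at 37° C. Supernatant IL-2 measured by MSD immunoassay; % inhibition set against no-NECA control wells as 100%.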

Assay [3] concerns the target human Adenosine A3 receptor (Homo sapiens (Human), UniProt P0DMS8). The assay is described as follows: Adenosine receptor TR-FRET binding assay (A3). To be noted: inhibition of binding of 100 nM CA200645, CHO cell membranes. Summed up:
as §1

In assay [4] the test system is CD8+T cells in human whole blood. The assay can be described thus: Measurement of pCREB in CD8+T cells in human whole blood. The format is cell-based. As to conditions: 3 μM NECA, rolipram. In outline: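 Heparinised human whole blood pre-incubated 20 min at 37 °C with serially diluted A2a antagonists plus rolipram, then stimulated 60 min with 3 μM NECA (final). After fixation and red-cell lysis, white cells were permeabilized and stained for phospho-CREB and CD8; pCREB in CD8+ T cells measured by flow cytometry.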

Assay [5] concerns the target human Adenosine A1 receptor (Homo sapiens (Human), UniProt P30542). The assay is described as follows: Adenosine receptor TR-FRET binding assay (A1). As to conditions: inhibition of binding of 100 nM CA200645, CHO cell membranes. Summed up: as §1

human Adenosine A1 receptor, sequence (P30542 whole entry): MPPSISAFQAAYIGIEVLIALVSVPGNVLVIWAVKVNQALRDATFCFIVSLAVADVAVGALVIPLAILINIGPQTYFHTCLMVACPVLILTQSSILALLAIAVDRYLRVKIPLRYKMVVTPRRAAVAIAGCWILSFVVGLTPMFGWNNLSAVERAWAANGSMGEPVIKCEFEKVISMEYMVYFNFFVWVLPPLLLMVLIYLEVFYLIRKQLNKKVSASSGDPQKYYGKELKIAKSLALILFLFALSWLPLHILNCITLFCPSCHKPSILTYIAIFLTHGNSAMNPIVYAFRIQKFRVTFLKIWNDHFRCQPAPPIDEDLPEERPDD
human Adenosine A3 receptor, sequence (P0DMS8 whole entry): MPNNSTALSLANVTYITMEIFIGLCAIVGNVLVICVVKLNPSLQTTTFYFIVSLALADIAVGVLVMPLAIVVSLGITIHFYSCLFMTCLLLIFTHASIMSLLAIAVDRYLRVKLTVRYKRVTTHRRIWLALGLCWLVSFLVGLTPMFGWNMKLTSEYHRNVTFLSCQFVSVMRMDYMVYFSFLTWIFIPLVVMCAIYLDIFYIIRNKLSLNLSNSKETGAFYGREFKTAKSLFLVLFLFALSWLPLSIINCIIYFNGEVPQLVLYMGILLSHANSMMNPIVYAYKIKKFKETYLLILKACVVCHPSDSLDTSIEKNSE
human Adenosine A2b receptor, sequence (P29275 whole entry): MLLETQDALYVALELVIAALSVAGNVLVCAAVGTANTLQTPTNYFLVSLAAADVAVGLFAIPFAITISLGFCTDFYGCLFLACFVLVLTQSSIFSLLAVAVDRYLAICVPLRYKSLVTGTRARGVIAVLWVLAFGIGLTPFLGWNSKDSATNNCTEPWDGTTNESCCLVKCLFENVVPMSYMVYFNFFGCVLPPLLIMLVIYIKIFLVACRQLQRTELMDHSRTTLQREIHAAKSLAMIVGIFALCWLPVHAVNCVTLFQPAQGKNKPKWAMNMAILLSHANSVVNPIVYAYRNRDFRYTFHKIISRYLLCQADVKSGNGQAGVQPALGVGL
human Adenosine A2a receptor, sequence (P29274 whole entry): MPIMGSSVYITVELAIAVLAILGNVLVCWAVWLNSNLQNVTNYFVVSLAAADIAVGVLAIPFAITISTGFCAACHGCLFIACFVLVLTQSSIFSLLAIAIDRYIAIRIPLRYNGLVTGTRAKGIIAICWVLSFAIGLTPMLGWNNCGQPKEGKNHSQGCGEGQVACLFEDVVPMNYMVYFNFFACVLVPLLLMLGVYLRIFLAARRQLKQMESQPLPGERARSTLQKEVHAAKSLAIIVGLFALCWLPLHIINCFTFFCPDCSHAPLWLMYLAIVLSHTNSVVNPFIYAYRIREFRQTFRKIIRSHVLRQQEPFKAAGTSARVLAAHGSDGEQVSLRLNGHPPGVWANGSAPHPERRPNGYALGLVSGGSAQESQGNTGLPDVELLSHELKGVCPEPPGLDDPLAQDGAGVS

Turning to `Cc1cc(-c2sc(NC(=O)N3CCC4(CCC(=O)N4)CC3)nc2-c2cccc(C#N)c2)cc(C)n1` [Example 6.45, N-[4-(3-Cyanophenyl)-5-(2,6-dimethyl-4-pyridyl)thiazol-2-yl]-2-oxo-1,8-diazaspiro[4.5]decane-8-carboxamide], the Ki (in general, the dissociation constant of the complex between target and ligand, obtained from inhibition or displacement) in assay [1] stood at 0.00044 µM; in assay [2] it was 0.002 µM; in assay [3], 0.183 µM; in assay [5], 0.104 µM. Besides, the figures for the IC50 (in the assay on human PBMCs; in assay [4]) were 0.0094 µM and 0.31 µM, respectively.
Take `Cc1cc(-c2sc(NC(=O)N3CCC(C)(C#N)C3)nc2-c2cccc(C#N)c2)cc(C)n1` (racemic) [Example 27, 3-Cyano-N-[4-(3-cyanophenyl)-5-(2,6-dimethyl-4-pyridyl)thiazol-2-yl]-3-methyl-pyrrolidine-1-carboxamide]: the Ki amounted to 0.00041 µM in assay [1], 0.0008 µM in assay [2], 0.225 µM in assay [3] and 0.021 µM in assay [5]. Further, the IC50 (commonly the midpoint of a concentration-inhibition curve) in the assay with human PBMCs was 0.0009 µM; in assay [4], 0.08 µM.
As for `Cc1cc(-c2sc(NC(=O)N3CC[C@H](C(C)(C)O)C3)nc2-c2cccc(C#N)c2)cc(C)n1` [Example 6.48, (3S)-N-[4-(3-Cyanophenyl)-5-(2,6-dimethyl-4-pyridyl)thiazol-2-yl]-3-(1-hydroxy-1-methyl-ethyl)pyrrolidine-1-carboxamide], the Ki in assay [1] amounted to 0.00111 µM; in assay [2] it was 0.0017 µM; in assay [3], 0.245 µM; in assay [5] it was 0.096 µM. In addition, the IC50 came to 0.0037 µM in the assay on human PBMCs and 0.14 µM in assay [4].
With `Cc1cc(-c2sc(NC(=O)N3CCS(=N)(=O)CC3)nc2-c2cccc(C#N)c2)cc(C)n1` [Example 4.2, N-[4-(3-Cyanophenyl)-5-(2,6-dimethyl-4-pyridyl)thiazol-2-yl]-1-imino-1-oxo-1,4-thiazinane-4-carboxamide], the Ki worked out at 0.00027 µM in assay [1], 0.0044 µM in assay [2], 0.881 µM in assay [3] and 0.028 µM in assay [5]. Also, the IC50 with human PBMCs was 0.0079 µM; in assay [4], 0.09 µM.
In the case of `Cc1cc(-c2sc(NC(=O)N3CCN(C)CC3)nc2-c2cccc(C#N)c2)cc(C)n1` [Example 4, N-[4-(3-Cyanophenyl)-5-(2,6-dimethyl-4-pyridyl)thiazol-2-yl]-4-methyl-piperazine-1-carboxamide], the Ki in assay [1] is 0.00101 µM; in assay [2] it was 0.0007 µM; in assay [3] it was 1 µM; in assay [5], 0.06 µM. Moreover, the figures for the IC50 (with human PBMCs; in assay [4]) were 0.0038 µM and 0.13 µM, respectively.
Consider `Cc1cc(-c2sc(NC(=O)N3CCN[C@H](CO)C3)nc2-c2cccc(C#N)c2)cc(Cl)n1` [Example 5.2, (3S)-N-[5-(2-Chloro-6-methyl-4-pyridyl)-4-(3-cyanophenyl)thiazol-2-yl]-3-(hydroxymethyl)piperazine-1-carboxamide], for which the Ki in assay [1] stood at 0.00084 µM; in assay [2], 0.0009 µM; in assay [3] it was 0.07 µM; in assay [5], 0.04 µM. Moreover, the IC50 was 0.0202 µM in the assay on human PBMCs and 1.18 µM in assay [4].
As for `Cc1cc(-c2sc(NC(=O)N3CC[C@@H](C(C)(C)O)C3)nc2-c2cccc(C#N)c2)cc(CO)n1` [Example 9.2], the Ki was 0.00079 µM in assay [1], 0.0053 µM in assay [2], 0.772 µM in assay [3] and 0.102 µM in assay [5]. Moreover, the IC50 in the assay on human PBMCs turned out to be 0.0027 µM; in assay [4], 0.02 µM.
Consider `CN=S1(=O)CCN(C(=O)Nc2nc(-c3cccc(C#N)c3)c(-c3cc(C)nc(C)c3)s2)CC1` [Example 6.32, N-[4-(3-Cyanophenyl)-5-(2,6-dimethyl-4-pyridyl)thiazol-2-yl]-1-methylimino-1-oxo-1,4-thiazinane-4-carboxamide], for which the Ki in assay [1] came out at 0.00083 µM; in assay [2] it was 0.0054 µM; in assay [3], 0.719 µM; in assay [5], 0.109 µM. Also, the IC50 in the assay on human PBMCs was found to be 0.0086 µM; in assay [4], 0.23 µM.
Regarding `Cc1cc(-c2sc(NC(=O)N3CCC(C)(O)CC3)nc2-c2cccc(C#N)c2)cc(Cl)n1` [Example 3.7], the Ki in assay [1] turned out to be 0.0002 µM; in assay [2], 0.0011 µM; in assay [3] it was 0.382 µM; in assay [5], 0.014 µM. The half-inhibitory concentration (IC50) in the assay with human PBMCs is 0.0033 µM; in assay [4], 0.29 µM.
As for `Cc1cc(-c2sc(NC(=O)N3CCN[C@H](C(C)(C)O)C3)nc2-c2cccc(C#N)c2)cc(C)n1` [Example 6.75, (3S)-N-[4-(3-Cyanophenyl)-5-(2,6-dimethyl-4-pyridyl)thiazol-2-yl]-3-(1-hydroxy-1-methyl-ethyl)piperazine-1-carboxamide], the Ki in assay [1] was determined as 0.00081 µM; in assay [2] it was 0.0048 µM; in assay [3], 0.361 µM; in assay [5], 0.099 µM. Further, the IC50 in the assay on human PBMCs was 0.0059 µM; in assay [4] it was 0.18 µM.
For the molecule `Cc1cc(-c2sc(NC(=O)N3CCN(CCO)CC3)nc2-c2cccc(C#N)c2)cc(C)n1` [Example 4.3, N-[4-(3-Cyanophenyl)-5-(2,6-dimethyl-4-pyridyl)thiazol-2-yl]-4-(2-hydroxyethyl)piperazine-1-carboxamide], the Ki came out at 0.0007 µM in assay [1], 0.0038 µM in assay [2], 0.603 µM in assay [3] and 0.187 µM in assay [5]. For the same molecule, the IC50 came out at 0.0182 µM in the assay with human PBMCs and 0.17 µM in assay [4].
Turning to `Cc1cc(-c2sc(NC(=O)N3CCC(C)(N)CC3)nc2-c2cccc(C#N)c2)cc(Cl)n1` [Example 5.9, 4-Amino-N-[5-(2-chloro-6-methyl-4-pyridyl)-4-(3-cyanophenyl)thiazol-2-yl]-4-methyl-piperidine-1-carboxamide], the Ki in assay [1] turned out to be 0.00232 µM; in assay [2], 0.0043 µM; in assay [3], 0.125 µM; in assay [5], 0.082 µM. Also, the figures for the IC50 (with human PBMCs; in assay [4]) were 0.0183 µM and 1 µM, respectively.
For `Cc1cc(-c2sc(NC(=O)N3CCN(C4COC4)CC3)nc2-c2cccc(C#N)c2)cc(Cl)n1` [Example 3.11], the Ki stood at 0.00052 µM in assay [1], 0.0012 µM in assay [2], 1.3 µM in assay [3] and 0.102 µM in assay [5]. In addition, the results for the IC50 (in the assay on human PBMCs; in assay [4]) were 0.0104 µM and 0.67 µM, respectively.
With `Cc1cc(-c2sc(NC(=O)N3CCC4(CCC(=O)N4C)CC3)nc2-c2cccc(C#N)c2)cc(C)n1` [Example 6.94, N-[4-(3-Cyanophenyl)-5-(2,6-dimethyl-4-pyridyl)thiazol-2-yl]-1-methyl-2-oxo-1,8-diazaspiro[4.5]decane-8-carboxamide], the Ki in assay [1] was found to be 0.00563 µM; in assay [2], 0.0113 µM; in assay [3], 0.719 µM; in assay [5], 0.407 µM. The results for the half-inhibitory concentration (IC50) (in the assay with human PBMCs; in assay [4]) were 0.0105 µM and 0.19 µM, respectively.
In the case of `Cc1cc(-c2sc(NC(=O)N3CCN(C)C(=O)C3)nc2-c2cccc(C#N)c2)cc(C)n1` [Example 4.15, N-[4-(3-Cyanophenyl)-5-(2,6-dimethyl-4-pyridyl)thiazol-2-yl]-4-methyl-3-oxo-piperazine-1-carboxamide], the Ki in assay [1] was 0.0023 µM; in assay [2], 0.0014 µM; in assay [3], 0.339 µM; in assay [5] it was 0.091 µM. The IC50 in the assay with human PBMCs was 0.0103 µM; in assay [4], 0.65 µM.
Turning to `Cc1cc(-c2sc(NC(=O)N3CCNCC3)nc2-c2cccc(C#N)c2)cc(C)n1` [Example 7, N-[4-(3-Cyanophenyl)-5-(2,6-dimethyl-4-pyridyl)thiazol-2-yl]piperazine-1-carboxamide], the Ki in assay [1] came out at 0.00281 µM; in assay [2], 0.0111 µM; in assay [3] it was 0.304 µM; in assay [5], 0.042 µM. In addition, the concentration for half-maximal inhibition (IC50) in the assay on human PBMCs stood at 0.016 µM; in assay [4] it was 0.58 µM.
Consider `Cc1cc(-c2sc(NC(=O)N3CCNC(=O)C3)nc2-c2cccc(C#N)c2)cc(C)n1` [Example 4.13, N-[4-(3-Cyanophenyl)-5-(2,6-dimethyl-4-pyridyl)thiazol-2-yl]-3-oxo-piperazine-1-carboxamide], for which the Ki in assay [1] amounted to 0.0015 µM; in assay [2], 0.0017 µM; in assay [3], 0.195 µM; in assay [5], 0.05 µM. Moreover, the IC50 in the assay with human PBMCs was found to be 0.0141 µM; in assay [4] it was 0.55 µM.
On to `Cc1cc(-c2sc(NC(=O)N3CCC4(CCC(=O)NC4)CC3)nc2-c2cccc(C#N)c2)cc(C)n1` [Example 6.40, N-[4-(3-Cyanophenyl)-5-(2,6-dimethyl-4-pyridyl)thiazol-2-yl]-3-oxo-2,9-diazaspiro[5.5]undecane-9-carboxamide], for which the Ki was determined as 0.00041 µM in assay [1], 0.0046 µM in assay [2], 0.33 µM in assay [3] and 0.11 µM in assay [5]. Further, the results for the IC50 (in the assay on human PBMCs; in assay [4]) were 0.0022 µM and 0.08 µM, respectively.
